# Measured values taken from paper PMC12007089, “Applying Isothermal Titration Calorimetry and Saturation Transfer Difference-NMR to Study the Mode of Interaction of Flavan-3-ols with α-Amylase to Understand Their Impact on Starch Hydrolysis” (Journal of Agricultural and Food Chemistry, 2025).
# Entries after “also recorded” stand apart in the source; their conditions may differ. Like-named read-outs stand apart in the source and are kept apart here.
# Key:
# [1] = Stability of ligands in 0.1 M PBS (UV/Vis concentration); format: physicochemical; conditions: for conc.: storage 3,5 h (EC), 22 h (CAT), 15 h (PC B1, PC B2, PC C1); for difference rt and 277 K: same storage times
# Procedure: Flavan-3-ols were dissolved in 0.1 M phosphate buffer containing 0.04 M NaCl at pH 7. Final concentrations were determined by UV/Vis spectroscopy at 298 K (quartz glass cuvette, light path 10 mm, Hellma Analytics, SPECTROstar Nano, BMG Labtech) using the following absorption coefficients ε at 280 nm: CAT, 3340 [L/mol cm]; EC, 3470 [L/mol cm]; PC B1, 6800 [L/mol cm]; […] PC C1, 10,000 [L/mol cm] according to Kaeswurm et al.[33] All ligand solutions were stored at 253 K. The data analysis for the interaction studies was conducted using software NanoAnalyze, with manual integration of the peaks. To correct the data for noninteraction-related heats, the mean heat released during the final three injections was subtracted as a constant blank. This procedure is an effective estimation strategy that minimizes errors during the fitting process, provided that the protein is fully saturated.[35] The data were fitted using the “independent” model. To prevent overparametrization, n was set to 1, while Ka and ΔH were maintained as variables, as recommended for low-affinity binding.[35],[36] The stability of the ligand at room temperature was ensured by monitoring the concentrations prior to and following the experiment (S5).
# [2] = target: T1, porcine pancreatic α-amylase (Sus scrofa, UniProt P00690); assay: Saturation transfer difference (STD)-NMR interaction study; format: binding; conditions: for saturation protein–ligand aliph., corrected by a blank / saturation protein–ligand arom., corrected by a blank / saturation aliph. / saturation arom.: 10 μM α-amylase, 1 mM ligand, 298 K; for saturation protein–ligand arom., corrected by a blank: catechol ring protons; for saturation aliph. / saturation arom.: head prints 'blank', values are protein–ligand not corrected by a blank; for ratio aliph.: share of aliphatic proton saturation; for ratio arom.: share of aromatic proton saturation
# T1 sequence (P00690 16-511): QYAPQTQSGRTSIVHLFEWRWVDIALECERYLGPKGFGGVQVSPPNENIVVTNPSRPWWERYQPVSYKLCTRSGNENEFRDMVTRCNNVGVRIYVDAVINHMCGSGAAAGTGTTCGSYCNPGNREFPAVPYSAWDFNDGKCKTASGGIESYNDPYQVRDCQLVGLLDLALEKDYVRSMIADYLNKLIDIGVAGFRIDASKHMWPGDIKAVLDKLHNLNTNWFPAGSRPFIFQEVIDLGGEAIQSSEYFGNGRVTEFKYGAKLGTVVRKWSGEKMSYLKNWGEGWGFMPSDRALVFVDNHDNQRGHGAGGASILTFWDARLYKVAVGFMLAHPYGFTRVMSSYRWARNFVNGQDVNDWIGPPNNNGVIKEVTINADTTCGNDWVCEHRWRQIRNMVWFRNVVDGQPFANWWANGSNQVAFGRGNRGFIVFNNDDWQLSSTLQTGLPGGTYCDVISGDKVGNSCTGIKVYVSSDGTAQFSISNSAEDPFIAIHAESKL
# Excerpt: STD-NMR parameters were optimized based on the Bruker standard pulse sequence stddiffgp19.3 using a protein and ligand blank sample. The irradiation frequency (FQ2), saturation time (D20), saturation pulse selectivity (SPW9), and power of the saturation pulse (P42) were varied to achieve maximum selective protein saturation (S2). The best saturation of the α-amylase, with 60%, was obtained with FQ2 = 0.5 ppm, D20 = 3 s, SPW9 = 35 dB, and P42 = 50 ms. The pseudo-2D experiment allows simultaneous acquisition of the on-resonance spectrum (with selective protein saturation) and the off-resonance spectrum (without protein saturation). The subtraction of both FIDs yields the STD-NMR spectrum (S3). The off-resonance spectrum serves as a reference spectrum for the determination of ligand saturation by intensity comparison with the STD-NMR spectrum. The protein blank sample contained 10 μM α-amylase, and the ligand blank was acquired with 1.1 mM flavan-3-ol in 0.1 M phosphate buffer/0.04 M NaCl (D2O/H2O, 90/10, v/v). Interaction studies were performed with 10 μM α-amylase and 1 mM (ligand). The software package TopSpin 3.2 of Bruker BioSpin was used for data acquisition and processing.
# α-amylase [3] = system: α-amylase; set-up: method as in PMID 21495725; conditions: cited from earlier work
# α-amylase [4] = system: α-amylase; set-up: method as in PMID 28618113; conditions: α-amylase concentration of 20 μM in the sample cell; cited from earlier work
# α-amylase [5] = system: α-amylase; set-up: method as in PMID 27132823; conditions: cited from earlier work
# [6] = target: T1, porcine pancreatic α-amylase; assay: CD spectroscopy, change in secondary structure of α-amylase; conditions: for impact on the secondary structure of α-amylase: 90 μM α-amylase, 600 μM flavan-3-ol; for α-helix / β-turn / β-sheet / random coil: α-amylase + polyphenol, 90 µM α-amylase, 600 µM polyphenol; for α-helix: α-amylase alone 8; for β-turn: α-amylase alone 12; for β-sheet: α-amylase alone 32; for random coil: α-amylase alone 48
# Procedure: CD spectra were recorded in the range of 240–190 nm with a bandwidth of 1 nm on a Jasco J-815 CD spectrometer equipped with a Peltier unit from Jasco PTC-4238 and a temperature control (F250, Julabo). For CD experiments, 20 μL respective dilutions of the stock solutions for α-amylase, EC, and PC B2 or mixtures of α-amylase and flavan-3-ol, obtained from the ITC cell after interactions experiments (see Section 2.7; 90 μM α-amylase and 600 μM EC/PC B2), were diluted with 60 μL of 0.2 M KCl and filled bubble-free into a cuvette with a light path of 0.1 mm (Hellma Analytics). At 273 K, 40 independent spectra were accumulated in a continuous scanning mode and a speed of 100 nm/min without baseline correction. Data analysis was performed in Excel according to Kaeswurm et al.[34]
# α-amylase [7] = target: α-amylase; set-up: method as in PMID 31496243; conditions: substrate Gal-G2-CNP, UV-based, cited from earlier work
SMILES,conc. ([1]; 277 K),conc. ([1]; room temperature (rt)),difference rt and 277 K [1],"saturation protein–ligand aliph., corrected by a blank [2] [%]","saturation protein–ligand arom., corrected by a blank [2] [%]",saturation aliph. [2] [%],saturation arom. [2] [%],ratio aliph. [2],ratio arom. [2],impact on the secondary structure of α-amylase [6],α-helix [6] [%],β-turn [6] [%],β-sheet [6] [%],random coil [6] [%],other results
"Oc1cc(O)c2c(c1)O[C@H](c1ccc(O)c(O)c1)[C@H](O)C2 [EC, (−)-Epicatechin]","3,99 ± 0,25 mM","4,23 ± 0,24 mM","0,24 mM",6,21,6,21,21,79,No significant impact; also recorded: did not induce significant changes,14,15,23,48,reduction / decrease in α-amylase activity (α-amylase [3]): 10%; binding to α-amylase by ITC (α-amylase [4]): weak binder; inhibition of α-amylase compared to other phenolic compounds and the apple extract (α-amylase [5]): weakest inhibition; Ki (α-amylase [7]; read-out: Kic): 88 ± 37 µM; Ki (α-amylase [7]; read-out: Kiu): 231 ± 45 µM
"Oc1cc(O)c2c(c1)O[C@H](c1ccc(O)c(O)c1)[C@H](O)[C@H]2c1c(O)cc(O)c2c1O[C@H](c1ccc(O)c(O)c1)[C@H](O)[C@H]2c1c(O)cc(O)c2c1O[C@H](c1ccc(O)c(O)c1)[C@H](O)C2 [PC C1, procyanidin C1]","4,60 ± 0,42 mM","4,29 ± 0,30 mM","0,31 mM",7,11,7,11,39,61,–,–,–,–,–,"observation in the STD-NMR sample with α-amylase [2]: visible precipitation; PC C1 concentration in solution after precipitation ([2]; after STD experiment, 1 mM PC C1, 10 μM α-amylase): 0.35 mM; decrease of PC C1 in solution after precipitation ([2]; integrals of aromatic protons, off-resonance spectrum vs pure ligand blank, 1 mM PC C1, 10 μM α-amylase): roughly 65%"

# Now from value to compound, other results behind:
conc. ([1]; 277 K),conc. ([1]; room temperature (rt)),difference rt and 277 K [1],"saturation protein–ligand aliph., corrected by a blank [2] [%]","saturation protein–ligand arom., corrected by a blank [2] [%]",saturation aliph. [2] [%],saturation arom. [2] [%],ratio aliph. [2],ratio arom. [2],SMILES,impact on the secondary structure of α-amylase [6],α-helix [6] [%],β-turn [6] [%],β-sheet [6] [%],random coil [6] [%],other results
"3,94 ± 0,24 mM","4,02 ± 0,21 mM","0,08 mM",3,11,5,13,21,79,"Oc1cc(O)c2c(c1)O[C@H](c1ccc(O)c(O)c1)[C@@H](O)C2 [CAT, (+)-Catechin]",–,–,–,–,–,–
"4,28 ± 0,20 mM","4,10 ± 0,29 mM","0,18 mM",11,14,11,14,44,56,"Oc1cc(O)c2c(c1)O[C@H](c1ccc(O)c(O)c1)[C@H](O)[C@H]2c1c(O)cc(O)c2c1O[C@H](c1ccc(O)c(O)c1)[C@@H](O)C2 [PC B1, procyanidin B1]",–,–,–,–,–,–
"4,46 ± 0,24 mM","4,56 ± 0,21 mM","0,11 mM",6,9,6,9,40,60,"Oc1cc(O)c2c(c1)O[C@H](c1ccc(O)c(O)c1)[C@H](O)[C@H]2c1c(O)cc(O)c2c1O[C@H](c1ccc(O)c(O)c1)[C@H](O)C2 [PC B2, procyanidin B2]",No significant impact; also recorded: did not induce significant changes,14,15,23,48,–
